Results as given in PubChem BioAssay AID1918936 (Molecular Pharmacology Branch, DTP, NCI, 2023).

Test system: 349418-098-R-PDC complex spheroid viability
Test: Anticancer human tumor 349418-098-R-PDC patient-derived lung adenocarcinoma cell line growth inhibition
Details: for viability, T/C: stronger effect = lower value; active = viability on the fitted dose curve at most 10% of control; inactive = the rest
How it was run: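 Complex spheroids of tumor cells with HUVEC and human MSCs, exposed to iadademstat combined with other agents. Each agent tested in half-log steps from near clinical Cmax (else 10 microM top), DMSO ≤0.25%.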

[1] = curve of first compound, second compound 0.1 µM
[2] = curve of first compound, second compound 0.316 µM
[3] = curve of first compound, second compound 1 µM
[4] = curve of first compound, second compound 3.16 µM
[5] = curve of first compound, second compound 10 µM
[6] = second compound 0.1 µM, first compound 0.0316 µM
[7] = second compound 0.1 µM, first compound 0.1 µM
[8] = second compound 0.1 µM, first compound 0.316 µM
[9] = second compound 0.1 µM, first compound 1 µM
[10] = second compound 0.1 µM, first compound 3.16 µM
[11] = second compound 0.1 µM, first compound 10 µM
[12] = second compound 0.316 µM, first compound 0.0316 µM
[13] = second compound 0.316 µM, first compound 0.1 µM
[14] = second compound 0.316 µM, first compound 0.316 µM
[15] = second compound 0.316 µM, first compound 1 µM
[16] = second compound 0.316 µM, first compound 3.16 µM
[17] = second compound 0.316 µM, first compound 10 µM
[18] = second compound 1 µM, first compound 0.0316 µM
[19] = second compound 1 µM, first compound 0.1 µM
[20] = second compound 1 µM, first compound 0.316 µM
[21] = second compound 1 µM, first compound 1 µM
[22] = second compound 1 µM, first compound 3.16 µM
[23] = second compound 1 µM, first compound 10 µM
[24] = second compound 3.16 µM, first compound 0.0316 µM
[25] = second compound 3.16 µM, first compound 0.1 µM
[26] = second compound 3.16 µM, first compound 0.316 µM
[27] = second compound 3.16 µM, first compound 1 µM
[28] = second compound 3.16 µM, first compound 3.16 µM
[29] = second compound 3.16 µM, first compound 10 µM
[30] = second compound 10 µM, first compound 0.0316 µM
[31] = second compound 10 µM, first compound 0.1 µM
[32] = second compound 10 µM, first compound 0.316 µM
[33] = second compound 10 µM, first compound 1 µM
[34] = second compound 10 µM, first compound 3.16 µM
[35] = second compound 10 µM, first compound 10 µM
[36] = second compound 0.1 µM, first compound 0.00316 µM
[37] = second compound 0.1 µM, first compound 0.01 µM
[38] = second compound 0.316 µM, first compound 0.00316 µM
[39] = second compound 0.316 µM, first compound 0.01 µM
[40] = second compound 1 µM, first compound 0.00316 µM
[41] = second compound 1 µM, first compound 0.01 µM
[42] = second compound 3.16 µM, first compound 0.00316 µM
[43] = second compound 3.16 µM, first compound 0.01 µM
[44] = second compound 10 µM, first compound 0.00316 µM
[45] = second compound 10 µM, first compound 0.01 µM
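Also: spheroids exposed to agents for seven days before readout.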
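For viability, T/C in this document: 100% = DMSO vehicle control wells.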

CC1(C)CCC(CN2CCN(c3ccc(C(=O)NS(=O)(=O)c4ccc(NCC5CCOCC5)c([N+](=O)[O-])c4)c(Oc4cnc5[nH]ccc5c4)c3)CC2)=C(c2ccc(Cl)cc2)C1 + NC1CC1c1ccc(-c2cccc(O)c2)cc1
1860 nM: IC50 [1]
2030 nM: IC50 [3] | IC50 [4]
1870 nM: IC50 [2]
inactive: viability, T/C [6] 111% | viability, T/C [7] 106% | viability, T/C [8] 104% | viability, T/C [9] 80.5% | viability, T/C [10] 23.9% | viability, T/C [12] 113% | viability, T/C [13] 111% | viability, T/C [14] 108% | viability, T/C [15] 82.5% | viability, T/C [16] 22.9% | viability, T/C [18] 119% | viability, T/C [19] 113% | viability, T/C [20] 108% | viability, T/C [21] 94.1% | viability, T/C [22] 22.5% | viability, T/C [24] 118% | viability, T/C [25] 109% | viability, T/C [26] 112% | viability, T/C [27] 95.2% | viability, T/C [28] 21.9% | viability, T/C [30] 96.3% | viability, T/C [31] 98.9% | viability, T/C [32] 93.2% | viability, T/C [33] 83.7% | viability, T/C [34] 10.5%
1700 nM: IC50 [5]
active: viability, T/C [11] 0.38% | viability, T/C [17] 0.15% | viability, T/C [23] 0.17% | viability, T/C [29] 0.16% | viability, T/C [35] 0.58%

COc1cc(Nc2ncc3c(n2)-c2ccc(Cl)cc2C(c2c(F)cccc2OC)=NC3)ccc1C(=O)O + NC1CC1c1ccc(-c2cccc(O)c2)cc1
69.9 nM: IC50 [2]
26 nM: IC50 [1]
inactive: viability, T/C [36] 75.4% | viability, T/C [37] 53.7% | viability, T/C [6] 50.2% | viability, T/C [7] 48.7% | viability, T/C [8] 47.5% | viability, T/C [9] 38.7% | viability, T/C [38] 74% | viability, T/C [39] 54.4% | viability, T/C [12] 55.4% | viability, T/C [13] 51% | viability, T/C [14] 45.8% | viability, T/C [15] 38.2% | viability, T/C [40] 79.1% | viability, T/C [41] 54.5% | viability, T/C [18] 51.8% | viability, T/C [19] 55.4% | viability, T/C [20] 50.4% | viability, T/C [21] 35.2% | viability, T/C [42] 73.2% | viability, T/C [43] 47.5% | viability, T/C [24] 59.6% | viability, T/C [25] 47.5% | viability, T/C [26] 43.7% | viability, T/C [27] 31.1% | viability, T/C [44] 62.1% | viability, T/C [45] 44.7% | viability, T/C [30] 55.1% | viability, T/C [31] 49.1% | viability, T/C [32] 34.4% | viability, T/C [33] 25.4%
53.9 nM: IC50 [3]
42.9 nM: IC50 [5]
57.8 nM: IC50 [4]

Nc1ncn(C2CC(O)C(CO)S2)c(=O)n1 (configuration not stated) + NC1CCC(NC2CC2c2ccccc2)CC1
20.3 nM: IC50 [3]
12.4 nM: IC50 [5]
18.5 nM: IC50 [1]
19.2 nM: IC50 [2] | IC50 [4]
inactive: viability, T/C (second compound 0.1 µM, first compound 0.000949 µM) 107% | viability, T/C (second compound 0.1 µM, first compound 0.003 µM) 85.5% | viability, T/C (second compound 0.1 µM, first compound 0.00949 µM) 71.7% | viability, T/C (second compound 0.1 µM, first compound 0.03 µM) 34.7% | viability, T/C (second compound 0.1 µM, first compound 0.0949 µM) 19.6% | viability, T/C (second compound 0.316 µM, first compound 0.000949 µM) 104% | viability, T/C (second compound 0.316 µM, first compound 0.003 µM) 100% | viability, T/C (second compound 0.316 µM, first compound 0.00949 µM) 71.6% | viability, T/C (second compound 0.316 µM, first compound 0.03 µM) 35.9% | viability, T/C (second compound 0.316 µM, first compound 0.0949 µM) 16.1% | viability, T/C (second compound 1 µM, first compound 0.000949 µM) 117% | viability, T/C (second compound 1 µM, first compound 0.003 µM) 96.2% | viability, T/C (second compound 1 µM, first compound 0.00949 µM) 74.3% | viability, T/C (second compound 1 µM, first compound 0.03 µM) 38.1% | viability, T/C (second compound 1 µM, first compound 0.0949 µM) 16.1% | viability, T/C (second compound 3.16 µM, first compound 0.000949 µM) 97.5% | viability, T/C (second compound 3.16 µM, first compound 0.003 µM) 89.8% | viability, T/C (second compound 3.16 µM, first compound 0.00949 µM) 73.4% | viability, T/C (second compound 3.16 µM, first compound 0.03 µM) 34.8% | viability, T/C (second compound 3.16 µM, first compound 0.0949 µM) 15.6% | viability, T/C (second compound 10 µM, first compound 0.000949 µM) 75.8% | viability, T/C (second compound 10 µM, first compound 0.003 µM) 86% | viability, T/C (second compound 10 µM, first compound 0.00949 µM) 51.1% | viability, T/C (second compound 10 µM, first compound 0.03 µM) 30.3% | viability, T/C (second compound 10 µM, first compound 0.0949 µM) 16% | viability, T/C (second compound 10 µM, first compound 0.3 µM) 7.62%
active: viability, T/C (second compound 0.1 µM, first compound 0.3 µM) 8.78% | viability, T/C (second compound 0.316 µM, first compound 0.3 µM) 9.32% | viability, T/C (second compound 1 µM, first compound 0.3 µM) 8.39% | viability, T/C (second compound 3.16 µM, first compound 0.3 µM) 7.02%

Cn1ncnc1C1c2n[nH]c(=O)c3cc(F)cc(c23)NC1c1ccc(F)cc1 (configuration not stated) + NC1CCC(NC2CC2c2ccccc2)CC1
inactive: viability, T/C (second compound 0.1 µM, first compound 0.000316 µM) 101% | viability, T/C (second compound 0.1 µM, first compound 0.001 µM) 96% | viability, T/C [36] 94.8% | viability, T/C [37] 95.3% | viability, T/C [6] 106% | viability, T/C [7] 92.5% | viability, T/C (second compound 0.316 µM, first compound 0.000316 µM) 108% | viability, T/C (second compound 0.316 µM, first compound 0.001 µM) 110% | viability, T/C [38] 116% | viability, T/C [39] 92.2% | viability, T/C [12] 97.6% | viability, T/C [13] 99.5% | viability, T/C (second compound 1 µM, first compound 0.000316 µM) 115% | viability, T/C (second compound 1 µM, first compound 0.001 µM) 112% | viability, T/C [40] 96.8% | viability, T/C [41] 112% | viability, T/C [18] 111% | viability, T/C [19] 87% | viability, T/C (second compound 3.16 µM, first compound 0.000316 µM) 107% | viability, T/C (second compound 3.16 µM, first compound 0.001 µM) 101% | viability, T/C [42] 99.4% | viability, T/C [43] 98.9% | viability, T/C [24] 89.7% | viability, T/C [25] 85.9% | viability, T/C (second compound 10 µM, first compound 0.000316 µM) 94.5% | viability, T/C (second compound 10 µM, first compound 0.001 µM) 91.2% | viability, T/C [44] 94.6% | viability, T/C [45] 86.8% | viability, T/C [30] 83.7% | viability, T/C [31] 87.3%
> 100 nM: IC50 [1] | IC50 [2] | IC50 [3] | IC50 [4] | IC50 [5]

NC1CC1c1ccc(-c2cccc(O)c2)cc1 (configuration not stated)
> 10000 nM: IC50 (compound alone, run of 02/01/2022)
inactive: viability, T/C (compound 1 µM) 113% [middle of 25 runs]

CC1(C)CCC(CN2CCN(c3ccc(C(=O)NS(=O)(=O)c4ccc(NCC5CCOCC5)c([N+](=O)[O-])c4)c(Oc4cnc5[nH]ccc5c4)c3)CC2)=C(c2ccc(Cl)cc2)C1 + NC1CCC(NC2CC2c2ccccc2)CC1
4550 nM: IC50 [4]
4300 nM: IC50 [3]
4240 nM: IC50 [5]
4250 nM: IC50 [1]
4540 nM: IC50 [2]
inactive: viability, T/C [6] 110% | viability, T/C [7] 110% | viability, T/C [8] 99.3% | viability, T/C [9] 96.3% | viability, T/C [10] 62.5% | viability, T/C [11] 11.8% | viability, T/C [12] 115% | viability, T/C [13] 105% | viability, T/C [14] 103% | viability, T/C [15] 103% | viability, T/C [16] 67.9% | viability, T/C [17] 11.7% | viability, T/C [18] 108% | viability, T/C [19] 111% | viability, T/C [20] 105% | viability, T/C [21] 96.1% | viability, T/C [22] 64.4% | viability, T/C [23] 10.4% | viability, T/C [24] 103% | viability, T/C [25] 101% | viability, T/C [26] 104% | viability, T/C [27] 94.1% | viability, T/C [28] 67.7% | viability, T/C [29] 12% | viability, T/C [30] 62.9% | viability, T/C [31] 81.2% | viability, T/C [32] 91% | viability, T/C [33] 87.4% | viability, T/C [34] 63% | viability, T/C [35] 11.9%
